According to patent US12037324B2, “Biarylmethyl heterocycles” (Université de Montréal, priority 2016, dated 2024):

Experiments:
hAT1R [1] = target: T1, hAT1R (Homo sapiens, UniProt P30556); assay: cell-based
T1 sequence (P30556 1-359): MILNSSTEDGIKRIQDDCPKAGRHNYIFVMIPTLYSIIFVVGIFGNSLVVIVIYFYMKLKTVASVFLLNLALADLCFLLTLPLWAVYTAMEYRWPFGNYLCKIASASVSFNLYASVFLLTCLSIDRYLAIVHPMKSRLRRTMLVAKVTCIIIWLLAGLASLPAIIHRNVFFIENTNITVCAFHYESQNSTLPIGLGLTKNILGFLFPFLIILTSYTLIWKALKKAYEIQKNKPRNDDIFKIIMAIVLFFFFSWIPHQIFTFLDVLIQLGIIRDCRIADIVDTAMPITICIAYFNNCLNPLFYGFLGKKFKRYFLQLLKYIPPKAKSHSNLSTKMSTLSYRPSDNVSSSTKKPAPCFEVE

hAT1R [2] = target: T1, hAT1R; assay: BRET β-arrestin2 biosensor assay, higher receptor expression (hAT1R 5 ng/well), HEK293 cells; format: cell-based; conditions: for EC50: High AT1R Expression
hAT1R [3] = target: T1, hAT1R; assay: cell-based; conditions: agonist mode; for EC50: read-out: BRET P63 EC50
AGTR1 [4] = target: T2, AGTR1 (Homo sapiens, UniProt P30556); assay: DiscoveRx IP1 accumulation assay (HTRF), agonist mode, Pathunter CHO-K1 AGTR1 β-arrestin cell line; format: cell-based; conditions: for EC50: read-out: IP-1 EC50
T2 construct: host or cells: Pathunter CHO-K1 AGTR1 β-arrestin cell line (CHO-K1)
T2 sequence (P30556 1-359): T1 sequence (P30556 1-359)
Outline: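 Agonist mode in CHO-K1 AGTR1 β-arrestin cells plated 14-16 h before; compounds at varying concentrations for 90 min at 37° C, IP1 accumulation read by HTRF (D2-conjugate and anti-IP1 cryptate, 20 min room temperature). EC50 from 4-parameter logistic fit; activity given as percentage of maximal AII effect.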

AGTR1 [5] = target: T2, AGTR1; assay: DiscoveRx β-arrestin2 recruitment assay (enzyme complementation, Pathunter CHO-K1 AGTR1 β-arrestin cell line); format: cell-based; conditions: DiscoveRx β-arrestin2 recruitment; for DiscoveRx β-arrestin2 Ymax (%): maximal response
Outline: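 CHO-K1 cells expressing AGTR1 with β-arrestin2 enzyme-complementation reporter, plated 14-16 h ahead in 1% serum medium, then exposed to compounds for 90 min at 37° C. Chemiluminescence read after 1 h detection. EC50 (agonist) or IC50 (antagonist) from 4-parameter logistic fit; activity as percentage of All maximal effect.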

[6] = Low AT1R Expression, read-out: BRET β-Arrestin2 Low AT1R Expression EC50
[7] = section of the 42nd table ending at r951, example numbering restarts after the DiscoveRx section, read-out: β-arrestin2 EC50

Row | SMILES | BRET β-Arrestin2 Low AT1R Expression Ymax (%) (hAT1R [1]; Low AT1R Expression) | EC50 (hAT1R [1]; [6]) | BRET β-Arrestin2 High AT1R Expression Ymax (%) (hAT1R [2]) | EC50 (hAT1R [2]) | BRET P63 Ymax (hAT1R [3]) | EC50 (hAT1R [3]) | IP-1 Ymax (%) (AGTR1 [4]) | EC50 (AGTR1 [4]) | EC50 (AGTR1 [5]) | DiscoveRx β-arrestin2 Ymax (%) (AGTR1 [5]) | EC50 (hAT1R [1]; [7])
1 | CCCC1=NC2(CCCC2)C(=O)N1Cc1ccc(-c2cc(-c3ccccc3)ccc2-c2nn[nH]n2)cc1 [Example 114, 3-((6′-(2H-tetrazol-5-yl)-[1,1′:3′,1″-terphenyl]-4-yl)methyl)-2-propyl-1,3-diazaspiro[4.4]non-1-en-4-one] | 57.2% | 36.6 nM | 89.2% | 11.9 nM | 11.8% | 66.5 nM | 8.3% | 122 nM | 49.9 nM | 46.5% | 
2 | CCc1nc2c(C)cc(C)nc2n1Cc1ccc(-c2cc(-c3cc(C)ccn3)ccc2-c2nn[nH]n2)cc1 [Example 64] | 98.7% | 3.1 nM | 92.5% | 1.9 nM | 41.3% | 2.6 nM | 30.8% | 23.2 nM | 6.9 nM | 67.8% | 
3 | CCc1nc2c(C)cc(C)nc2n1Cc1ccc(-c2cc(OC3CCCCC3)ccc2-c2nnn[nH]2)cc1 [Example 209, 3-((5′-(Cyclohexyloxy)-2′-(1H-tetrazol-5-yl)-[1,1′-biphenyl]-4-yl)methyl)-2-ethyl-5,7-dimethyl-3H-imidazo[4,5-b]pyridine] |  |  | 90.6% | 7.2 nM | 32.6% | 37.6 nM | 25.5% | 110 nM | 45.9 nM | 49.6% | 50 nM
4 | CCc1nc2c(C)cc(C)nc2n1Cc1ccc(-c2cc(-c3cc(C)cc(C)c3)ccc2C(=O)O)cc1 [Example 181, 4″-((2-ethyl-5,7-dimethyl-3H-imidazo[4,5-b]pyridin-3-yl)methyl)-3,5-dimethyl-[1,1′:3′,1″-terphenyl]-4′-carboxylic acid] |  |  | 94.1% | 4.8 nM | 16.1% | 47.5 nM | 6.1% | 78.4 nM | 48 nM | 88.8% | 15.7 nM
5 | CCc1nc2c(C)cc(C)nc2n1Cc1ccc(-c2cc(-c3ccsn3)ccc2-c2nn[nH]n2)cc1 [Example 57] | 8.9% | 19.9 nM | 66.3% | 15.2 nM | 5.0% | 14.3 nM |  | > 100000 nM | 16.6 nM | 26.3% | 
6 | CCc1nc2c(C)cc(C)nc2n1Cc1ccc(-c2cc(-c3cc(C)cc(C)c3)ccc2-c2nn[nH]n2)cc1 [Example 9] | 80.3% | 9.4 nM | 87.8% | 5.6 nM | 14.2% | 19.5 nM | 7.1% | 8.7 nM | 3.7 nM | 66.7% | 
7 | CCc1nc2c(C)cc(C)nc2n1Cc1ccc(-c2cc(-c3cccc(C)c3)ccc2-c2nnn[nH]2)cn1 [Example 177, 2-ethyl-5,7-dimethyl-3-((5-(3′-methyl-4-(1H-tetrazol-5-yl)biphenyl-3-yl)pyridin-2-yl)methyl)-3H-imidazo[4,5-b]pyridine] |  |  | 91.8% | 4 nM | 23.8% | 36.2 nM | 22.9% | 113 nM | 11.8 nM | 52.2% | 11.5 nM
8 | CCc1nc2c(C)cc(C)nc2n1Cc1ccc(-c2cc(-c3cccc(C(F)(F)F)n3)ccc2-c2nn[nH]n2)cc1 [Example 61] | 38.2% | 108 nM | 81.4% | 16.1 nM | 6.4% | 22.3 nM | 9.8% | 150 nM | 31.5 nM | 43.7% | 
9 | CCc1nc2c(C)cc(C)nc2n1Cc1ccc(-c2cc(-c3ccccc3)ccc2C(=O)O)cn1 [Example 196, 3-(6-((2-ethyl-5,7-dimethyl-3H-imidazo[4,5-b]pyridin-3-yl)methyl)pyridin-3-yl)-[1,1′-biphenyl]-4-carboxylic acid] |  |  | 83.3% | 618 nM | 7.6% | 1100 nM | 12.1% | 869 nM | 3020 nM | 50.4% | 1700 nM
10 | CCc1nc2c(C)cc(C)nc2n1Cc1ccc(-c2cc(-c3ccc(CO)cc3)ccc2-c2nnn[nH]2)cn1 [Example 180] |  |  | 85.3% | 50.8 nM | 14.9% | 210 nM | 27.5% | 226 nM | 51.9 nM | 40.4% | 178 nM
11 | CCc1nc2c(C)cc(C)nc2n1Cc1ccc(-c2cc(Oc3ccccc3)ccc2-c2nnn[nH]2)cc1 [Example 204, 2-Ethyl-5,7-dimethyl-3-((5′-phenoxy-2′-(1H-tetrazol-5-yl)-[1, 1′-biphenyl]-4-yl)methyl)-3H-imidazo[4,5-b]pyridine] |  |  | 85.9% | 3.6 nM | 9.4% | 10.7 nM | 14.4% | 66.8 nM | 26.4 nM | 42.4% | 9.8 nM
12 | CCc1nc2c(C)cc(C)nc2n1Cc1ccc(-c2cc(-c3ccccc3)ccc2-c2nsc(=O)[nH]2)cc1 [Example 245] |  |  | 88.8% | 4.9 nM | 23.3% | 27.2 nM | 12.7% | 89.4 nM | 115 nM | 75.5% | 24.1 nM
13 | CCCCC1=NC2(CCCC2)C(=O)N1Cc1ccc(-c2cc(-c3ccc(C(=O)N(C)C)cc3)ccc2-c2nn[nH]n2)cc1 [Example 133] |  | > 10000 nM | 69.0% | 38.4 nM |  | > 10000 nM |  | > 100000 nM | 5.7 nM | 18.0% | 
14 | CCc1nc2c(C)cc(C)nc2n1Cc1ccc(-c2cc(-c3cccc(OC)c3)ccc2-c2nn[nH]n2)cc1 [Example 20] | 59.5% | 12.2 nM | 85.5% | 4.3 nM | 12.0% | 10.8 nM | 9.9% | 12.8 nM | 4.9 nM | 38.7% | 
